# From the NIST ThermoML archive (doi:10.1016/j.fluid.2016.10.005)
# Numbers after ± are expanded uncertainties.
# Experiments:
# [1] = molar heat capacity at constant pressure; conditions: 101 kPa, Liquid, DSC
# [2] = molar heat capacity at constant pressure; mn = molality of the nth substance listed, in mol/kg; conditions: 101 kPa, Liquid, DSC, m2 = 0
compound,measurement,setting,value
"CCCCCOCCOCCOCCO [ethanol, 2-[2-[2-(pentyloxy)ethoxy]ethoxy]-]",molar heat capacity at constant pressure,[1]; 278.15 K,471.7 ± 18 J/K/mol
same,molar heat capacity at constant pressure,[1]; 283.15 K,473.61 ± 18 J/K/mol
same,molar heat capacity at constant pressure,[1]; 288.15 K,475.62 ± 18 J/K/mol
same,molar heat capacity at constant pressure,[1]; 293.15 K,477.67 ± 19 J/K/mol
same,molar heat capacity at constant pressure,[1]; 298.15 K,479.72 ± 19 J/K/mol
same,molar heat capacity at constant pressure,[1]; 308.15 K,484.23 ± 19 J/K/mol
same,molar heat capacity at constant pressure,[1]; 318.15 K,489.08 ± 19 J/K/mol
same,molar heat capacity at constant pressure,[1]; 328.15 K,494.37 ± 19 J/K/mol
same,molar heat capacity at constant pressure,[1]; 333.15 K,497.05 ± 19 J/K/mol
O [water],molar heat capacity at constant pressure,[1]; 278.15 K,75.75 ± 2.9 J/K/mol
same,molar heat capacity at constant pressure,[1]; 283.15 K,75.58 ± 2.9 J/K/mol
same,molar heat capacity at constant pressure,[1]; 288.15 K,75.47 ± 2.9 J/K/mol
same,molar heat capacity at constant pressure,[1]; 293.15 K,75.39 ± 2.9 J/K/mol
same,molar heat capacity at constant pressure,[1]; 298.15 K,75.35 ± 2.9 J/K/mol
same,molar heat capacity at constant pressure,[1]; 308.15 K,75.32 ± 2.9 J/K/mol
same,molar heat capacity at constant pressure,[1]; 318.15 K,75.34 ± 2.9 J/K/mol
same,molar heat capacity at constant pressure,[1]; 328.15 K,75.4 ± 2.9 J/K/mol
same,molar heat capacity at constant pressure,[1]; 333.15 K,75.48 ± 2.9 J/K/mol
O [water] + CCCCCOCCOCCOCCO,molar heat capacity at constant pressure,[2]; 278.15 K,75.75 ± 2.9 J/K/mol
same,molar heat capacity at constant pressure,[2]; 283.15 K,75.58 ± 2.9 J/K/mol
same,molar heat capacity at constant pressure,[2]; 288.15 K,75.47 ± 2.9 J/K/mol
same,molar heat capacity at constant pressure,[2]; 293.15 K,75.39 ± 2.9 J/K/mol
same,molar heat capacity at constant pressure,[2]; 298.15 K,75.35 ± 2.9 J/K/mol
same,molar heat capacity at constant pressure,[2]; 308.15 K,75.32 ± 2.9 J/K/mol
same,molar heat capacity at constant pressure,[2]; 318.15 K,75.34 ± 2.9 J/K/mol
same,molar heat capacity at constant pressure,[2]; 328.15 K,75.4 ± 2.9 J/K/mol
same,molar heat capacity at constant pressure,[2]; 333.15 K,75.48 ± 2.9 J/K/mol
